Assay results published in paper PMC11286589, “Population pharmacokinetics and exposure–response analyses of SAF-189s in Chinese patients with ALK+/ROS1+ non-small cell lung cancer” (Frontiers in Pharmacology, 2024).
Read-outs that look alike come from different tables or passages of the source.

Columns and labels:
[1] = Adverse events in patients of study SAF001; format: in vivo, human
Protocol: (§1) All studies were conducted in accordance with the Good Clinical Practice guidelines and Declaration of Helsinki. The protocols were approved by the independent ethics committee of each investigation site, and all subjects provided informed consent. The tumor responses were assessed by the IRC based on the Response Evaluation Criteria in Solid Tumors (RECIST) 1.1 conditions. The exposure–efficacy analyses of SAF-189s were conducted based on data from patients in the SAF001 study to explore the relationships between systemic exposure and efficacy endpoints, including the ORR, PFS, and duration of response (DOR). The exposure–safety analyses of SAF-189s were conducted based on data from patients in the SAF001 study to explore the relationships between the systemic exposure and safety endpoints, including the adverse events (AEs) of interest. In these studies, the SAF-189s plasma concentrations were analyzed using validated liquid chromatography tandem mass spectrometry within the assay range of 0.5–150 ng mL^–1.
(§2) The exposure–safety relationships were characterized using the exposure metrics to the first occurrence of an event. The AEs of interest selected for analysis included hyperglycemia and proteinuria. The individual post hoc PK parameters from the final PopPK model and the first dosage were used to calculate the Cmin,ss, Cmax,ss, and AUCss at steady state, which were used as the exposure metrics. The exposure–safety analysis was performed using a logistic regression modeling approach.

[2] = Exposure–safety analysis (logistic regression); format: in vivo, human; conditions: per increase in exposure (AUCss) of 1 ng∙h mL^–1 d^–1, all patients
Protocol: as §1, §2

[3] = no reference given, cited from earlier work
[4] = design: method as in Qin et al., 2023; conditions: ref Qin et al., 2023, cited from earlier work
CYP3A = conditions: no reference given; cited from earlier work
[5] = high-fat meal vs fasted, single dose 160 mg
[6] = single dose 160 mg, unaffected by food

## Cc1cc(Nc2ncc(Cl)c(Nc3ccccc3S(=O)(=O)C(C)C)n2)c2c(c1C1CCN(C)CC1)C[C@@H](C)O2 [SAF-189s]
[1]; 160 mg QD dosing regimen
  tolerability: well tolerated
[1]; 160 mg dose group
  incidence of drug-related TEAE leading to permanent discontinuation: 2%
[1]; 160 mg dose group, ALK+ and ROS1+ patients (n = 153)
  incidence of grade ≥3 TEAE: less than 9.15%
[1]; 210 mg dose vs other lower doses
  tolerability: less tolerated
[1]; SAF001 patients, any grade
  incidence rate of hyperglycemia: 55.74%
[1]; any grade, N = 296
  Diarrhea, number of patients (%): 65 (21.96%)
  Hypercholesterolemia or cholesterol increase, number of patients (%): 111 (37.50%)
  Hyperglycemia, number of patients (%): 165 (55.74%)
  Nausea, number of patients (%): 112 (37.84%)
  Proteinuria, number of patients (%): 90 (30.41%)
  Vomiting, number of patients (%): 102 (34.46%)
[1]; ≥ Grade 2, N = 296
  Diarrhea, number of patients (%): 17 (5.74%)
  Hypercholesterolemia or cholesterol increase, number of patients (%): 27 (9.12%)
  Hyperglycemia, number of patients (%): 82 (27.70%)
  Nausea, number of patients (%): 8 (2.70%)
  Proteinuria, number of patients (%): 28 (9.46%)
  Vomiting, number of patients (%): 15 (5.07%)
[2]; p < 0.001
  OR for any-grade hyperglycemia: 3.521
  OR for grade ≥2 hyperglycemia: 7.662
[2]; p = 0.021
  OR for proteinuria: 2.031
[3]; BCS classification
  permeability: low permeability
  solubility: low solubility
[3]
  BCS class: BCS IV
[4]; fasted
  intersubject variability AUC0-t: 33.8%
  intersubject variability AUC0-∞: 34.6%
  intersubject variability Cmax: 23.0%
[4]; fed
  intersubject variability AUC0-t: 31.3%
  intersubject variability AUC0-∞: 32.8%
  intersubject variability Cmax: 19.7%
[4]; [5]
  geometric mean ratio AUC0-t: 105.1%
  geometric mean ratio Cmax: 109.1%
[4]; [6]
  Tmax (median): 6 h
  t½ (mean): around 35 h
CYP3A
  CYP3A substrate: substrate of CYP3A
